Measured values published in patent publication US20250171438A1 (Agios Pharmaceuticals, Inc., priority 2022, published 2025).

Target: T1, human PAH with the R408W mutation (Homo sapiens, UniProt P00439, R408W)
T1 construct: expressed in transfected cells
T1 sequence (P00439 1-452 R408W): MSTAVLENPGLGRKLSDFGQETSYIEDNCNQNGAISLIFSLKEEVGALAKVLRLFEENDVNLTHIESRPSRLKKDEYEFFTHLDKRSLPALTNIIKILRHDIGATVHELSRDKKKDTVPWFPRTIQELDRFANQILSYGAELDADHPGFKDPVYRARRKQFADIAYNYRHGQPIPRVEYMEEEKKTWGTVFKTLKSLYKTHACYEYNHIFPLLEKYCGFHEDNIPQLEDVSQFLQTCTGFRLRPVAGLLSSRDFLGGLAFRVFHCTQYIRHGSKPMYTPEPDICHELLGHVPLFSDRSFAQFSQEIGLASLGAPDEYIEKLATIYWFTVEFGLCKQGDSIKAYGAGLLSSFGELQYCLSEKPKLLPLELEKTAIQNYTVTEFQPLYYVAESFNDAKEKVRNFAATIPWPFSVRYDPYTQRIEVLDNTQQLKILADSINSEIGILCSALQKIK
Assay: Cell Based Phenylalanine Flux Assay
Details: A375 cells expressing human R408W PAH; 24 hrs with compound; 13C-Tyrosine by LC-MS; average where tested multiple times; read-out: AC50

Structure (SMILES) | AC50 [µM]
Cc1nc(C2CCN2)oc1C(=O)N1CCc2[nH]cnc2C1c1nc2c(F)cccc2s1 (stereo not shown) | > 5
Cn1nnc(C(=O)N2CCc3[nH]cnc3C2c2nc3ccccc3s2)n1 (stereo not shown) | 1 to 5
Cn1nc(C(F)F)nc1C(=O)N1CCc2[nH]cnc2C1c1nc2c(F)cccc2s1 (stereo not shown) | 1 to 5
Cn1nc(C2CC2)nc1C(=O)N1CCc2[nH]cnc2C1c1nc2ccccc2s1 (stereo not shown) | 1 to 5
Cn1nc(C2CC2)nc1C(=O)N1CCc2[nH]cnc2C1c1nc2c(F)cccc2s1 (stereo not shown) | 1 to 5
Cn1nc(C2CC2)cc1C(=O)N1CCc2[nH]cnc2C1c1nc2c(F)cccc2s1 (stereo not shown) | 1 to 5
CC(C)(O)c1cc(C(=O)N2CCc3[nH]cnc3C2c2nc3ccccc3s2)on1 (stereo not shown) | 1 to 5
Cn1nc(C(C)(C)O)nc1C(=O)N1CCc2[nH]cnc2C1c1nc2ccccc2s1 (stereo not shown) | 1 to 5
Cn1nc(CC#N)nc1C(=O)N1CCc2[nH]cnc2C1c1nc2c(F)cccc2s1 (stereo not shown) | 1 to 5
CC(C)(O)c1noc(C(=O)N2CCc3[nH]cnc3C2c2nc3c(F)cccc3s2)n1 (stereo not shown) | 1 to 5
CC(C)(O)c1nsc(C(=O)N2CCc3[nH]cnc3C2c2nc3c(F)cccc3s2)n1 (stereo not shown) | 1 to 5
Cn1ncc(C(=O)N2CCc3[nH]cnc3C2c2nc3c(C(F)(F)F)cccc3s2)c1Cl (stereo not shown) | 1 to 5
NC(=O)Cn1ncc(C(=O)N2CCc3[nH]cnc3C2c2nc3c(F)cccc3s2)c1C(F)F (stereo not shown) | 1 to 5
CNC(=O)N1CC(C(=O)N2CCc3[nH]cnc3C2c2nc3ccccc3s2)C1 (stereo not shown) | > 5
Cn1cnc(C(=O)N2CCc3[nH]cnc3C2c2nc3c(F)cccc3s2)n1 (stereo not shown) | > 5
Cn1ncnc1C(=O)N1CCc2[nH]cnc2C1c1nc2c(F)cccc2s1 (stereo not shown) | 1 to 5
O=C(c1ccn[nH]1)N1CCc2[nH]cnc2C1c1nc2c(F)cccc2s1 (stereo not shown) | 1 to 5
Cc1nc(C(C)(C)S(C)(=O)=O)oc1C(=O)N1CCc2[nH]cnc2C1c1nc2c(F)cccc2s1 (stereo not shown) | 1 to 5
Cc1nc(N2CCOCC2)oc1C(=O)N1CCc2[nH]cnc2C1c1nc2c(F)cccc2s1 (stereo not shown) | 1 to 5
CNC(C)(C)c1nc(C)c(C(=O)N2CCc3[nH]cnc3C2c2nc3c(F)cccc3s2)o1 (stereo not shown) | 1 to 5
CC1CN(C(=O)c2cnco2)C(c2nc3c(F)cccc3s2)c2nc[nH]c21 (stereo not shown) [listing 1 of 4 here] | > 5
Cc1nnc(C(=O)N2CC(C)c3[nH]cnc3C2c2nc3ccccc3s2)o1 (stereo not shown) [listing 2 of 3 here] | > 5
CC1CN(C(=O)c2cnco2)C(c2nc3c(F)cccc3s2)c2nc[nH]c21 (stereo not shown) [listing 2 of 4 here] | > 5
CC1CN(C(=O)c2cnco2)C(c2nc3c(F)cccc3s2)c2nc[nH]c21 (stereo not shown) [listing 3 of 4 here] | 1 to 5
CC1CN(C(=O)c2cnn3cc(CN(C)C)ccc23)C(c2nc3ccccc3s2)c2nc[nH]c21 (stereo not shown) [listing 2 of 3 here] | 1 to 5
Cc1nnc(C(=O)N2CC(C)c3[nH]cnc3C2c2nc3ccccc3s2)o1 (stereo not shown) [listing 3 of 3 here] | 1 to 5

Now from value to molecule:

AC50 [µM] | Structure (SMILES)
1 to 5 | Cn1nc(Br)nc1C(=O)N1CCc2[nH]cnc2C1c1nc2c(F)cccc2s1 (stereo not shown)
1 to 5 | CC(C)(O)c1noc(C(=O)N2CCc3[nH]cnc3C2c2nc3ccccc3s2)n1 (stereo not shown)
1 to 5 | CC(C)(O)c1cc(C(=O)N2CCc3[nH]cnc3C2c2nc3c(F)cccc3s2)sn1 (stereo not shown)
> 5 | Cn1nc(C(C)(C)O)nc1C(=O)N1CCc2[nH]cnc2C1c1nc2c(F)cccc2s1 (stereo not shown)
1 to 5 | Cc1nnc(C(=O)N2CCc3[nH]cnc3C2c2nc3c(F)cccc3s2)n1C (stereo not shown)
1 to 5 | Cn1ncc(C(=O)N2CCc3[nH]cnc3C2c2nc3c(C(F)(F)F)cccc3s2)c1C(F)F (stereo not shown)
1 to 5 | Cn1ncc(C(=O)N2CCc3[nH]cnc3C2c2nc3c(F)cccc3s2)c1Br (stereo not shown)
1 to 5 | Cc1cccc2sc(C3c4nc[nH]c4CCN3C(=O)c3cnn(C)c3Cl)nc12 (stereo not shown)
1 to 5 | Cn1ccc(C(=O)N2CCc3[nH]cnc3C2c2nc3c(F)cccc3s2)n1 (stereo not shown)
1 to 5 | O=C(c1cn[nH]c1)N1CCc2nc[nH]c2C1c1nc2c(F)cccc2s1 (stereo not shown)
1 to 5 | Cn1nnc(C(=O)N2CCc3[nH]cnc3C2c2nc3c(F)cccc3s2)n1 (stereo not shown)
1 to 5 | Cc1nc(N2CCN(C)CC2)oc1C(=O)N1CCc2[nH]cnc2C1c1nc2c(F)cccc2s1 (stereo not shown)
1 to 5 | Cn1nc(N)cc1C(=O)N1CCc2[nH]cnc2C1c1nc2ccccc2s1 (stereo not shown)
> 5 | Cc1nnc(C(=O)N2CC(C)c3[nH]cnc3C2c2nc3ccccc3s2)o1 (stereo not shown) [listing 1 of 3 here]
> 5 | Cc1nc(-c2ccccn2)oc1C(=O)N1CC(C)c2[nH]cnc2C1c1nc2ccccc2s1 (stereo not shown) [listing 1 of 3 here]
> 5 | CC1CN(C(=O)c2cnn3cc(CN(C)C)ccc23)C(c2nc3ccccc3s2)c2nc[nH]c21 (stereo not shown) [listing 1 of 3 here]
1 to 5 | Cc1nc(-c2ccccn2)oc1C(=O)N1CC(C)c2[nH]cnc2C1c1nc2ccccc2s1 (stereo not shown) [listing 2 of 3 here]
1 to 5 | Cc1nc(-c2ccccn2)oc1C(=O)N1CC(C)c2[nH]cnc2C1c1nc2ccccc2s1 (stereo not shown) [listing 3 of 3 here]
> 5 | CC1CN(C(=O)c2cnco2)C(c2nc3c(F)cccc3s2)c2nc[nH]c21 (stereo not shown) [listing 4 of 4 here]
> 5 | CC1CN(C(=O)c2cnn3cc(CN(C)C)ccc23)C(c2nc3ccccc3s2)c2nc[nH]c21 (stereo not shown) [listing 3 of 3 here]
